What all share (type): cell-based
The subject of test [1] is colorectal cancer cell line HCT-116. As to the kind of experiment: Cell migration of colorectal cancer cell line (culture insert). Conditions: 2.5 mM, 24 hours, then 12 hours after insert removal. The method, then:
A colorectal cancer cell line HCT-116 with the cell number of 4×10^5 cells was inoculated into a culture container at the center of which an ibidi culture insert having a thickness of 500 μm was placed, and treated with 2.5 mM calcium lactate and then cultured for 24 hours. Then, the insert was removed and further cultured for 12 hours to analyze migration of the cancer cells to a site where the insert was removed using a JuLi Br, Live cell analyzer (NanoEnTek Inc., South Korea) (FIG. 18). In this case, a colorectal cancer cell line cultured without treating with calcium lactate was used as a control group.

The test system of test [2] is human lung cancer cell line (A549). As to the kind of experiment: Colony-forming ability, anticancer drug in combination with calcium lactate (6-well plates). The following applies: 2.5 mM calcium lactate alone, vs control. On the procedure:
Human breast cancer cell line (MCF-7) and a human lung cancer cell line (A549) with the cell number of 1×10^3 cells were seeded into an RPMI1640 medium in each of 6-well plates. […]. Then, the colony-forming abilities of the cells were compared. In this case, a human breast cancer cell line (MCF-7) and a human lung cancer cell line (A549) untreated with any drug were used as control groups (FIGS. 42a, 42b, 43a and 43b).
Human lung cancer cell line (A549) with the cell number of 1×10^3 cells were seeded into an RPMI1640 medium in each of 6-well plates. […]. Then, the colony-forming abilities of the cells were compared. In this case, a human lung cancer cell line (A549) untreated with any drug was used as a control group (FIGS. 44a and 44b).
Human lung cancer cell line (A549) with the cell number of 1×10^3 cells were seeded into an RPMI1640 medium in each of 6-well plates. […]. Then, the colony-forming abilities of the cells were compared. In this case, a human lung cancer cell line (A549) untreated with any drug was used as a control group (FIGS. 47a and 47b).
Human lung cancer cell line (A549) with the cell number of 1×10^3 cells were seeded into an RPMI1640 medium in each of 6-well plates. […]. Then, the colony-forming abilities of the cells were compared. In this case, a human lung cancer cell line (A549) untreated with any drug was used as a control group (FIGS. 49a and 49b).
Human lung cancer cell line (A549) with the cell number of 1×10^3 cells were seeded into an RPMI1640 medium in each of 6-well plates. […]. Then, the colony-forming abilities of the cells were compared. In this case, a human lung cancer cell line (A549) untreated with any drug was used as a control group (FIGS. 50a and 50b).
Human lung cancer cell line (A549) with the cell number of 1×10^3 cells were seeded into an RPMI1640 medium in each of 6-well plates. […]. Then, the colony-forming abilities of the cells were compared. In this case, a human lung cancer cell line (A549) untreated with any drug was used as a control group (FIGS. 51a and 51b).

The subject of test [3] is human colorectal cancer cell line (HT-29). Described as above. Conditions: 2.5 mM calcium lactate alone, vs control. The method, then: Human colorectal cancer cell line (HT-29) with the cell number of 1×10^3 cells were seeded into an RPMI1640 medium in each of 6-well plates. […]. Then, the colony-forming abilities of the cells were compared. In this case, a human colorectal cancer cell line (HT-29) untreated with any drug was used as a control group (FIGS. 46a and 46b).
Human colorectal cancer cell line (HT-29) with the cell number of 1×10^3 cells were seeded into an RPMI1640 medium in each of 6-well plates. […]. Then, the colony-forming abilities of the cells were compared. In this case, a human colorectal cancer cell line (HT-29) untreated with any drug was used as a control group (FIGS. 48a and 48b).
Human colorectal cancer cell line (HT-29) with the cell number of 1×10^3 cells were seeded into an RPMI1640 medium in each of 6-well plates. […]. Then, the colony-forming abilities of the cells were compared. In this case, a human colorectal cancer cell line (HT-29) untreated with any drug was used as a control group (FIG. 55).

For test [4], the system named is cancer cell lines. As to the kind of experiment: α-KG level in cancer cells (α-Ketoglutarate assay kit). The following applies: normal medium or glutamine-free medium; 2.5 mM, 24 hours. The method, then:
Cancer cell lines with the cell number of 5×10^5 cells cultured in a normal medium or a glutamine-free medium were treated with 2.5 mM calcium lactate for 24 hours and the cells were disrupted by ultrasonication and filtered using a 10 kDa filter so as to obtain filtrate. The obtained filtrate was applied to an α-Ketoglutarate assay kit (BioVision, Exton, Pa.) to measure the concentration of α-KG included in the filtrate (FIGS. 14a and 14b).

For test [5], the system named is human breast cancer cell line (MCF-7). The test can be described thus: Colony-forming ability, anticancer drug in combination with calcium lactate (6-well plates). Conditions: 2.5 mM calcium lactate alone, vs control. The method, then: Human breast cancer cell line (MCF-7) and a human lung cancer cell line (A549) with the cell number of 1×10^3 cells were seeded into an RPMI1640 medium in each of 6-well plates. […] Then, the colony-forming abilities of the cells were compared. In this case, a human breast cancer cell line (MCF-7) and a human lung cancer cell line (A549) untreated with any drug were used as control groups (FIGS. 42a, 42b, 43a and 43b).
Human breast cancer cell line (MCF-7) with the cell number of 1×10^3 cells were seeded into an RPMI1640 medium in each of 6-well plates. After one day, the medium was replaced with fresh medium and the cells were treated with 2.5 mM calcium lactate or 2 μM, 4 μM, and 8 μM Lapatinib alone or treated with various concentrations (2 μM, 4 μM, and 8 μM) of Lapatinib in combination with 2.5 mM calcium lactate. Then, the colony-forming abilities of the cells were compared. In this case, a human breast cancer cell line (MCF-7) untreated with any drug was used as a control group (FIGS. 52a and 52b).

Here are results for one molecule from patent publication US11413261B2, “Pharmaceutical composition for treating cancer comprising lactate metal salt” (METIMEDI PHARMACEUTICALS CO., LTD, priority 2014, dated 2022).

For `CC(O)C(=O)[O-].CC(O)C(=O)[O-].[Ca+2]` (centres unmarked) [calcium lactate], the cell migration entry in test [1] is reported as “decreased”. Also, the colony-forming ability entry in test [2], in test [3] and in test [5] was “suppressed” throughout. Further, in test [4], the “α-KG levels in the cells” value is recorded as “sharply increased”.
